# Reference: ChEMBL document CHEMBL1212936, “Discovery of 2-[1-(4-chlorophenyl)cyclopropyl]-3-hydroxy-8-(trifluoromethyl)quinoline-4-carboxylic acid (PSI-421), a P-selectin inhibitor with improved pharmacokinetic properties and oral efficacy in models of vascular injury” (J Med Chem, 2010)
# Calls of active or inactive are those of the source. The calls are words filed in the database; no cut-off is given here.
# Legend:
# [1] = Aqueous solubility of the compound at pH 9; type: physicochemical; details: aqueous solution, read-out: solubility
# [2] = system: Rattus norvegicus; assay: Dose normalized AUC in Sprague-Dawley rat measured per mg of plasma at 3 mg/kg, iv and 10 mg/kg, po; type: ADME, organism-based; details: in vivo
# [3] = Solubility of the compound in fasted simulated intestinal bile salts-lecithin mixture fluid at pH 6; type: physicochemical
# [4] = Physiological stability of the compound at pH 1 assessed as compound remaining after 8 hrs in presence of 20% acetonitrile; type: physicochemical; details: read-out: Stability
# [5] = Physiological stability of the compound at pH 1 assessed as compound remaining after 12 hrs in presence of 20% acetonitrile; type: physicochemical; details: read-out: Stability
# [6] = Physiological stability of the compound at pH 1 assessed as compound remaining after 20 hrs in presence of 20% acetonitrile; type: physicochemical; details: read-out: Stability
# [7] = Physiological stability of the compound at pH 1 assessed as compound remaining after 24 hrs in presence of 20% acetonitrile; type: physicochemical; details: read-out: Stability
# [8] = Physiological stability of the compound at pH 4.5 assessed as compound remaining after 20 hrs in presence of 20% acetonitrile; type: physicochemical; details: read-out: Stability
# [9] = Physiological stability of the compound at pH 4.5 assessed as compound remaining after 24 hrs in presence of 20% acetonitrile; type: physicochemical; details: read-out: Stability
# [10] = Physiological stability of the compound at pH 6.6 assessed as compound remaining after 20 hrs in presence of 20% acetonitrile; type: physicochemical; details: read-out: Stability
# [11] = Physiological stability of the compound at pH 7.4 assessed as compound remaining after 8 hrs in presence of 20% acetonitrile; type: physicochemical; details: read-out: Stability
# [12] = Physiological stability of the compound at pH 7.4 assessed as compound remaining after 16 hrs in presence of 20% acetonitrile; type: physicochemical; details: read-out: Stability
# [13] = Physiological stability of the compound at pH 7.4 assessed as compound remaining after 20 hrs in presence of 20% acetonitrile; type: physicochemical; details: read-out: Stability
# [14] = Physiological stability of the compound at pH 9 assessed as compound remaining after 4 hrs in presence of 20% acetonitrile; type: physicochemical; details: read-out: Stability
# [15] = Physiological stability of the compound at pH 9 assessed as compound remaining after 12 hrs in presence of 20% acetonitrile; type: physicochemical; details: read-out: Stability
# [16] = Physiological stability of the compound at pH 9 assessed as compound remaining after 24 hrs in presence of 20% acetonitrile; type: physicochemical; details: read-out: Stability
# [17] = Physiological stability of the compound in simulated intestinal fluid assessed as compound remaining after 4 hrs in presence of 20% acetonitrile; type: physicochemical; details: read-out: Stability
# [18] = Physiological stability of the compound in simulated intestinal fluid assessed as compound remaining after 24 hrs in presence of 20% acetonitrile; type: physicochemical; details: read-out: Stability
# [19] = Physiological stability of the compound in simulated intestinal bile salts-lecithin mixture fluid assessed as compound remaining after 8 hrs in presence of 20% acetonitrile; type: physicochemical; details: read-out: Stability
# [20] = Physiological stability of the compound in simulated intestinal bile salts-lecithin mixture fluid assessed as compound remaining after 16 hrs in presence of 20% acetonitrile; type: physicochemical; details: read-out: Stability
# [21] = Permeability from apical to basolateral side in human Caco-2 cells; type: ADME, cell-based
# [22] = Permeability from basolateral to apical side in human Caco-2 cells; type: ADME, cell-based
# [23] = Half life in Sprague-Dawley rat liver microsomes; type: ADME, Microsome
# [24] = Half life in C57B6 mouse liver microsomes; type: ADME, Microsome
# [25] = Half life in human liver microsomes; type: ADME, Microsome
# [26] = Oral bioavailability in C57B6 mouse at 10 mg/kg; type: ADME, organism-based; details: in vivo
# [27] = Clearance in C57B6 mouse at 2 mg/kg, iv and 10 mg/kg, po; type: ADME, organism-based; details: in vivo
# [28] = Oral bioavailability in Beagle dog at 10 mg/kg; type: ADME, organism-based, Canis lupus familiaris; details: in vivo
# [29] = system: Rattus norvegicus; assay: Inhibition of leukocytes rolling flux in acute intravital microscopy model of Sprague-Dawley rat cremasteric postcapillary venules at 3 mg/kg, po after 35 mins relative to control; type: functional
# [30] = system: Rattus norvegicus; assay: Inhibition of leukocytes rolling flux in acute intravital microscopy model of Sprague-Dawley rat cremasteric postcapillary venules at 7.5 mg/kg, po after 35 mins relative to control; type: functional
# [31] = system: Rattus norvegicus; assay: Inhibition of leukocytes rolling flux in acute intravital microscopy model of Sprague-Dawley rat cremasteric postcapillary venules at 15 mg/kg, po after 35 mins relative to control; type: functional
# [32] = system: Plasma; assay: Drug level in Sprague-Dawley rat plasma at 7.5 mg/kg, po; type: ADME, organism-based; parameters: dose 7.5 mg/kg, route oral; details: in vivo
# [33] = system: Plasma; assay: Drug level in Sprague-Dawley rat plasma at 15 mg/kg, po; type: ADME, organism-based; parameters: dose 15 mg/kg, route oral; details: in vivo
# [34] = system: Rattus norvegicus; assay: Inhibition of Sprague-Dawley rat neointimal hyperplasia carotid balloon injury model at 30 mg/kg, po once daily for 13 days; type: functional; details: 312 h
# [35] = system: Papio anubis; assay: Antithrombotic activity in Baboon deep vein thrombosis model assessed as vein opening at 1 mg/kg, po; type: functional, organism-based; parameters: dose 1 mg/kg
# [36] = system: Papio anubis; assay: Antithrombotic activity in Baboon deep vein thrombosis model assessed as decrease in vein wall inflammation at 1 mg/kg, po; type: functional, organism-based; parameters: dose 1 mg/kg
# [37] = system: Papio anubis; assay: Toxicity in Baboon deep vein thrombosis model assessed as induction of coagulation at 1 mg/kg, po; type: organism-based; parameters: dose 1 mg/kg, route oral; details: in vivo
# [38] = Genotoxicity in Salmonella Typhimurium by Ames test; type: toxicity; details: salmonella enterica subsp. enterica serovar typhimurium
smiles,measurement,setting,value
O=C(O)c1c(O)c(C2(c3ccc(Cl)cc3)CC2)nc2c(C(F)(F)F)cccc12,solubility,[1],1070 µg/mL
same,AUC,[2],21000 ng·h/mL
same,solubility,[3],87 µg/mL
same,remaining at 8 h,[4],102%
same,remaining at 12 h,[5],102%
same,remaining at 20 h,[6],102%
same,remaining at 24 h,[7],101%
same,remaining at 20 h,[8],100%
same,remaining at 24 h,[9],102%
same,remaining at 20 h,[10],102%
same,remaining at 8 h,[11],102%
same,remaining at 16 h,[12],102%
same,remaining at 20 h,[13],102%
same,remaining at 4 h,[14],98.5%
same,remaining at 12 h,[15],98.8%
same,remaining at 24 h,[16],99.6%
same,remaining at 4 h,[17],101%
same,remaining at 24 h,[18],95%
same,remaining at 8 h,[19],101%
same,remaining at 16 h,[20],102%
same,Papp A→B,[21],5.1 ×10⁻⁶ cm/s
same,Papp B→A,[22],9.8 ×10⁻⁶ cm/s
same,half-life,[23],> 60 min
same,half-life,[24],> 60 min
same,half-life,[25],> 60 min
same,bioavailability,[26],67%
same,clearance,[27],7 mL/min/kg
same,bioavailability,[28],100%
same,inhibition in vivo at 3 mg/kg,[29],12%
same,inhibition in vivo at 7.5 mg/kg,[30],47%
same,inhibition in vivo at 15 mg/kg,[31],51%
same,Cp,[32],6 µg/mL
same,Cp,[33],24 µg/mL
same,inhibition in vivo at 30 mg/kg,[34],31%
same,Activity,[35],Active
same,Activity,[36],Active
same,Activity,[37],Non-toxic
same,Activity,[38],Non-toxic
